Results on 11 compounds are retold here after PubChem BioAssay (NCI).

Some test systems named below: OVCAR-8 ovarian; HT29 colon; SNB-19 CNS; EKVX NSCLC; ACHN renal; LOX IMVI melanoma; K-562 leukemia; UACC-62 melanoma; SN12C renal; U251 CNS.
What all share (assay): NCI-60 cell line screen, 48 h

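In this assay, cells in 96-well plates receive the compound at five concentrations for 48 hours. Endpoints are linearly interpolated between the surrounding concentrations. GI50 is the concentration that inhibits growth by half. The concentration for full growth arrest is given as TGI.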 A value given as a limit tells only on which side of the number the result lay.

On to `COc1cc2ncnc(-n3ncc4cc(NC(=O)Nc5ccc(Cl)c(Cl)c5)ccc43)c2cc1OC`, for which the GI50 with OVCAR-8 ovarian is 2.77 µM; in the assay with HT29 colon it was 1.98 µM; in the assay on SNB-19 CNS, 2.66 µM; in the assay on EKVX NSCLC, 3.06 µM; with ACHN renal, 1.45 µM; with LOX IMVI melanoma, 1.97 µM. Also, the GI50 was 3.02 µM in the assay on K-562 leukemia, 1.7 µM in the assay with UACC-62 melanoma, 2.1 µM with SN12C renal and 1.5 µM in the assay on U251 CNS. The TGI with OVCAR-8 ovarian was 7.07 µM; in the assay with HT29 colon, 4.29 µM; in the assay with SNB-19 CNS, 9.58 µM; with EKVX NSCLC it was 9.84 µM; in the assay on ACHN renal, 3.25 µM; in the assay on LOX IMVI melanoma it was 3.76 µM. Moreover, the TGI in the assay on K-562 leukemia amounted to 10.8 µM; in the assay with UACC-62 melanoma, 3.44 µM; in the assay on SN12C renal, 4.78 µM; in the assay with U251 CNS it was 3.06 µM.
For the compound `COc1cccc(CN(C)c2ccc(CO)c(Cl)c2)c1`, the GI50 in the assay on OVCAR-8 ovarian is 20.7 µM; in the assay with HT29 colon, 5.03 µM; in the assay with SNB-19 CNS, 35.2 µM; in the assay with EKVX NSCLC it was 24.8 µM; in the assay with ACHN renal it was 42.1 µM; in the assay with LOX IMVI melanoma, 34.7 µM. Besides, the GI50 with K-562 leukemia is 7.56 µM; in the assay with UACC-62 melanoma it was 0.19 µM; in the assay on SN12C renal it was 24.7 µM; in the assay on U251 CNS, 3.32 µM. Besides, the TGI with OVCAR-8 ovarian was above 96.5 µM; in the assay with HT29 colon, above 100 µM; with SNB-19 CNS it was above 100 µM; in the assay with EKVX NSCLC it was 97.9 µM; with ACHN renal, above 100 µM; in the assay with LOX IMVI melanoma, above 100 µM. For the same compound, the TGI with K-562 leukemia was above 100 µM; in the assay with UACC-62 melanoma, 1.63 µM; in the assay with SN12C renal, above 100 µM; in the assay on U251 CNS it was above 64.1 µM.
With `CN1CCN(Cc2ccc(NC(=O)c3cncc(C#Cc4cnc(N)cc4C#N)c3)cc2C(F)(F)F)CC1`, the GI50 is 4.51 µM in the assay on OVCAR-8 ovarian; 1.04 µM with HT29 colon; 6.27 µM in the assay with SNB-19 CNS; 3.4 µM in the assay on EKVX NSCLC; 1.57 µM in the assay on ACHN renal; 0.601 µM with LOX IMVI melanoma. For the same compound, the GI50 was 0.034 µM in the assay with K-562 leukemia, 0.877 µM with UACC-62 melanoma, 2.46 µM with SN12C renal and 4.45 µM in the assay on U251 CNS. For the same compound, the TGI stood at 19 µM with OVCAR-8 ovarian; 15.5 µM in the assay on HT29 colon; 18.9 µM in the assay on SNB-19 CNS; 14.7 µM with EKVX NSCLC; 9.39 µM in the assay on ACHN renal; 1.99 µM with LOX IMVI melanoma. Besides, the TGI with K-562 leukemia came out at 12.1 µM; in the assay with UACC-62 melanoma, 3.92 µM; in the assay with SN12C renal, 10.7 µM; in the assay with U251 CNS, 19.1 µM.
As for `O=S1(=O)N(Cc2ccccc2)[C@@H](Cc2ccccc2)[C@H](O)[C@H](O)[C@H](Cc2ccccc2)N1Cc1ccccc1`, the GI50 in the assay with OVCAR-8 ovarian was 4.2 µM; in the assay on HT29 colon, 2.63 µM; in the assay with SNB-19 CNS it was 4.69 µM; in the assay with EKVX NSCLC, 3.43 µM; with ACHN renal it was 6.01 µM; with LOX IMVI melanoma it was 3.28 µM. Also, the GI50 was 3.05 µM with K-562 leukemia, 2.86 µM in the assay on UACC-62 melanoma, 3.26 µM in the assay on SN12C renal and 3.07 µM in the assay on U251 CNS. The TGI with OVCAR-8 ovarian is 11.2 µM; with HT29 colon, 5.64 µM; in the assay with SNB-19 CNS, above 20 µM; in the assay with EKVX NSCLC, 9.86 µM; with ACHN renal it was above 20 µM; with LOX IMVI melanoma, 7.09 µM. Also, the TGI with K-562 leukemia was 9.38 µM; in the assay on UACC-62 melanoma, 6.4 µM; in the assay with SN12C renal, 7.68 µM; in the assay with U251 CNS it was 6.47 µM.
With `COc1ccc(NC(=O)/C=C(C)/C=C/C=C(C)/C=C/C2=C(C)CCCC2(C)C)cc1`, the GI50 in the assay with OVCAR-8 ovarian was 13 µM; in the assay with HT29 colon it was 3.22 µM; with SNB-19 CNS, 14.7 µM; in the assay with EKVX NSCLC, 14.9 µM; in the assay on ACHN renal it was 3.21 µM; in the assay on LOX IMVI melanoma, 2.93 µM. In addition, the GI50 is 2.41 µM in the assay on K-562 leukemia, 10.7 µM in the assay with UACC-62 melanoma, 11.2 µM in the assay on SN12C renal and 4.76 µM with U251 CNS. Besides, the TGI with OVCAR-8 ovarian was 38.5 µM; with HT29 colon it was 10.2 µM; with SNB-19 CNS, 28.1 µM; with EKVX NSCLC it was 29.2 µM; in the assay on ACHN renal, 12.4 µM; in the assay on LOX IMVI melanoma, 10.6 µM. Also, the TGI with K-562 leukemia was determined as 7.23 µM; with UACC-62 melanoma it was 22.9 µM; in the assay with SN12C renal it was 23.9 µM; in the assay with U251 CNS, 17.9 µM.
Turning to `O=c1nc(-c2ccccc2)cc(CC(O)c2ccc(Cl)c(Cl)c2)[nH]1` (stereo not given), the TGI with OVCAR-8 ovarian, in the assay with HT29 colon, in the assay with SNB-19 CNS, in the assay on EKVX NSCLC, in the assay on ACHN renal and with LOX IMVI melanoma was above 100 µM throughout. Also, the TGI in the assay with K-562 leukemia, in the assay with UACC-62 melanoma, in the assay with SN12C renal and in the assay on U251 CNS was above 100 µM in each case.
Take `Oc1c(Cl)cc(Cl)c2ccc(Cn3cc(-c4cc(C(F)(F)F)cc(C(F)(F)F)c4)nn3)nc12`: the GI50 with OVCAR-8 ovarian was 2.79 µM; in the assay with HT29 colon, 2.04 µM; in the assay on SNB-19 CNS it was 8.28 µM; in the assay with EKVX NSCLC, 7.65 µM; in the assay with ACHN renal it was 1.25 µM; in the assay with LOX IMVI melanoma, 0.317 µM. In addition, the GI50 is 0.313 µM in the assay on K-562 leukemia, 2.15 µM with UACC-62 melanoma, 3.11 µM with SN12C renal and 4.52 µM in the assay with U251 CNS. Besides, the TGI stood at 9.94 µM in the assay with OVCAR-8 ovarian; 5.1 µM in the assay with HT29 colon; 21.8 µM in the assay with SNB-19 CNS; 21 µM in the assay with EKVX NSCLC; 2.5 µM in the assay on ACHN renal; 1.28 µM with LOX IMVI melanoma. In addition, the TGI was above 100 µM in the assay with K-562 leukemia, 6.65 µM in the assay on UACC-62 melanoma, 11.8 µM with SN12C renal and 16.8 µM with U251 CNS.
`Cc1ccc2nc(-c3ccc(OCC(=O)N=Nc4c(O)[nH]c5ccccc45)cc3)[nH]c2c1`: the GI50 in the assay with OVCAR-8 ovarian was 2.46 µM; in the assay on HT29 colon, 2.43 µM; in the assay on SNB-19 CNS it was 4.01 µM; with EKVX NSCLC, 28 µM; with ACHN renal it was 7.37 µM; in the assay on LOX IMVI melanoma it was 1.83 µM. Further, the GI50 was 2.43 µM in the assay on K-562 leukemia, 4.38 µM with UACC-62 melanoma, 2.42 µM with SN12C renal and 1.86 µM in the assay with U251 CNS. In addition, the TGI in the assay on OVCAR-8 ovarian was 6.34 µM; in the assay on HT29 colon it was 6.27 µM; in the assay with SNB-19 CNS, 15.9 µM; in the assay with EKVX NSCLC it was above 100 µM; in the assay on ACHN renal it was above 100 µM; in the assay on LOX IMVI melanoma, 3.52 µM. Further, the TGI in the assay on K-562 leukemia was 9.44 µM; with UACC-62 melanoma it was 16.8 µM; with SN12C renal it was 7.73 µM; with U251 CNS, 3.6 µM.
For `COc1ccc(C(=O)c2cc3c(N)c(C(=O)Nc4ccccc4)sc3nc2C)cc1`, the GI50 with OVCAR-8 ovarian was 3.71 µM; in the assay on HT29 colon, 0.562 µM; in the assay on SNB-19 CNS, 2.02 µM; in the assay on EKVX NSCLC, 5.42 µM; in the assay with ACHN renal it was 1.56 µM; in the assay on LOX IMVI melanoma, 0.739 µM. Moreover, the GI50 is 0.526 µM in the assay with K-562 leukemia, 0.952 µM with UACC-62 melanoma, 1.68 µM in the assay with SN12C renal and 0.704 µM with U251 CNS. Also, the TGI in the assay with OVCAR-8 ovarian, in the assay on HT29 colon, in the assay on SNB-19 CNS, in the assay on EKVX NSCLC, in the assay with ACHN renal and in the assay on LOX IMVI melanoma was above 100 µM each time. The TGI in the assay with K-562 leukemia, with UACC-62 melanoma, in the assay with SN12C renal and in the assay with U251 CNS was above 100 µM each time.
Take `C=C/C(C)=C/C[C@]1(C)[C@H](C)[C@@H](OC(=O)CCC)[C@H](O)[C@@]23C(=C[C@H](OC)C[C@@H]12)[C@@H](OC(=O)CCC)O[C@H]3OC(C)=O`: the GI50 in the assay on OVCAR-8 ovarian was 0.447 µM; in the assay with HT29 colon, 0.343 µM; with SNB-19 CNS it was 1.66 µM; in the assay on EKVX NSCLC it was 0.987 µM; in the assay with ACHN renal, 0.234 µM; in the assay on LOX IMVI melanoma, 1.22 µM. Further, the GI50 with K-562 leukemia is 0.438 µM; in the assay with UACC-62 melanoma, 0.529 µM; in the assay with SN12C renal, 0.316 µM; in the assay on U251 CNS it was 1.32 µM. Also, the TGI with OVCAR-8 ovarian turned out to be 2.42 µM; in the assay with HT29 colon it was 1.42 µM; in the assay on SNB-19 CNS it was 3.58 µM; with EKVX NSCLC it was 2.61 µM; in the assay on ACHN renal it was 0.619 µM; in the assay with LOX IMVI melanoma, 2.56 µM. For the same compound, the TGI was 2.41 µM in the assay on K-562 leukemia, 1.88 µM in the assay on UACC-62 melanoma, 1.4 µM with SN12C renal and 2.98 µM in the assay with U251 CNS.
In the case of `CCn1c(-c2cc3c([nH]c4ccccc43)c(-c3cccc(O)c3)n2)n[nH]c1=S`, the GI50 with OVCAR-8 ovarian is 3.96 µM; in the assay on HT29 colon it was 2.74 µM; in the assay on SNB-19 CNS it was 4.28 µM; with EKVX NSCLC, 3.45 µM; with ACHN renal, 3.02 µM; with LOX IMVI melanoma, 2.93 µM. Further, the GI50 in the assay with K-562 leukemia was 1.88 µM; with UACC-62 melanoma, 1.95 µM; with SN12C renal, 4.02 µM; with U251 CNS, 3.18 µM. The TGI was determined as 31 µM with OVCAR-8 ovarian; 6.97 µM with HT29 colon; 16.6 µM with SNB-19 CNS; 14.5 µM in the assay on EKVX NSCLC; 10.1 µM in the assay with ACHN renal; 12.7 µM in the assay on LOX IMVI melanoma. Moreover, the TGI with K-562 leukemia is above 100 µM; in the assay on UACC-62 melanoma, 7.35 µM; in the assay with SN12C renal it was 22.1 µM; in the assay with U251 CNS, 15.1 µM.
